Holding throughout (test): NCI anticancer screen, dose series, 48 h
In assay [1] the test system is K-562 leukemia.
The test system of assay [2] is HCT-15 colon.
The test system of assay [3] is COLO 205 colon.
Assay [4] has as its system U251 CNS.
The test system of assay [5] is SK-OV-3 ovarian.
In assay [6] the test system is HT29 colon.
Assay [7] deals with A498 renal.
Assay [8] has as its system KM12 colon.
The test system of assay [9] is NCI/ADR-RES ovarian.
The subject of assay [10] is SF-539 CNS.

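In this assay, cells in 96-well plates receive the compound at five concentrations for 48 hours. Endpoints are linearly interpolated between the surrounding concentrations. At the GI50, growth is halved. Definition used: TGI = concentration required for complete inhibition of growth.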

On to `O=C(c1cccs1)N1CCN(C(=O)c2cccs2)C1=S`, for which the TGI in assay [1] is > 45.2 µM; in assay [2] it was 17.7 µM; in assay [3], 22.4 µM; in assay [4], 18.2 µM; in assay [5] it was 28.9 µM; in assay [6], 21 µM. The TGI was 32.1 µM in assay [7], 12.4 µM in assay [8], 59 µM in assay [9] and 4.84 µM in assay [10].
As for `CCN(CC)C(=S)SS(=O)(=O)c1cccc(N)c1`, the TGI in assay [1], in assay [2], in [3], in assay [4], in assay [5] and in assay [6] was > 100 µM throughout. Also, the TGI in assay [7], in assay [8], in assay [9] and in [10] was > 100 µM throughout.
As to `COc1cc(C2c3cc4c(cc3C3OC[C@@H]2C3CO)OCO4)cc(OC)c1OC` (stereo partly specified), the TGI in [1] is > 100 µM; in assay [2], 71.5 µM; in assay [3], 33.6 µM; in assay [4], > 100 µM; in assay [5], > 100 µM; in [6] it was > 100 µM. In addition, the TGI is > 100 µM in [7], > 100 µM in [8], 39.3 µM in assay [9] and 37.3 µM in assay [10]. The GI50 in [10] is 17.7 µM.
As for `CC(C)(C)CC(C)(C)c1cc(O)c(O)c(CN2CCCCC2)c1`, the TGI is 19.3 µM in [1]; 15.9 µM in assay [2]; 25.3 µM in assay [3]; 24.3 µM in assay [4]; 34.8 µM in assay [5]; 19.7 µM in assay [6]. Further, the figures for the TGI in [7], in [8] and in [9] were 27.3 µM, 40.4 µM and 19 µM, respectively.
For the compound `CC(C)(C)n1c(=O)[nH]c(=O)n1C(C)(C)C`, the TGI in [1], in assay [2], in assay [3], in [4], in assay [5] and in [6] was > 100 µM throughout. Besides, the TGI in [7], in assay [8], in [9] and in assay [10] was > 100 µM each time.
`COc1cccc(N[C@@H]2c3cc4c(cc3C(c3cc(OC)c(O)c(OC)c3)[C@H]3C(=O)OCC32)OCO4)c1` (stereo partly specified): the TGI was 14.1 µM in assay [1]; 2.39 µM in assay [2]; 7.39 µM in assay [3]; 13 µM in assay [4]; 17.9 µM in assay [5]; 10.5 µM in assay [6]. In addition, the TGI in assay [7] is 2.1 µM; in assay [8], 7.06 µM; in assay [9], > 70.2 µM; in [10], 2.52 µM.
As for `N#Cc1cc2c(n(C3OC(CO)C(O)C(O)C3O)c1=S)CCCCCC2` (stereo unspecified), the TGI in [1], in [2], in assay [3], in assay [4], in [6] and in [7] was > 100 µM each time. In addition, the TGI in [8], in assay [9] and in assay [10] was > 100 µM throughout.
Turning to `CCc1cc2c(c3c1CCCC3=O)CC1(Cc3ccc(C(=O)OC)cc3C1)C2` (stereo unspecified), the TGI in assay [1], in assay [2], in [3], in assay [4], in [5] and in assay [6] was > 100 µM each time. Further, the TGI in [7], in assay [8], in [9] and in assay [10] was > 100 µM each time.
Consider `Cc1ccc(S(=O)(=O)Nn2c(O)c(C#N)c(-c3ccc(Cl)cc3)c(C#N)c2=O)cc1`, for which the TGI in assay [1], in assay [2], in assay [3], in assay [4], in assay [5] and in [6] was > 100 µM each time. Also, the TGI in assay [7], in assay [8], in assay [9] and in [10] was > 100 µM in each case.
Turning to `COc1cccc(N=N/C(=N\NC(=O)c2ccc(C)cc2)c2ccc(N(CCC#N)CCC#N)cc2C)c1`, the TGI in [1], in assay [2], in [3], in assay [4], in assay [5] and in assay [6] was > 100 µM in each case. Besides, the TGI in assay [7], in assay [8], in assay [9] and in [10] was > 100 µM each time.
`C=CCOn1c(C=C)nc2ccc(C)cc21`: the TGI in assay [1] is 55.3 µM; in [2], 68.2 µM; in assay [3], 26.9 µM; in assay [4] it was 26 µM; in assay [5] it was > 100 µM; in [6], 30.2 µM. The TGI in [7] was 43.6 µM; in assay [8], 44.2 µM; in [9], > 100 µM.
On to `C/C(=N\NC(=S)N(C)C)c1cccnn1`, for which the TGI in [1], in assay [2], in [3], in assay [4], in assay [5] and in assay [6] was > 100 µM each time. Besides, the TGI is 10.7 µM in [7], > 100 µM in assay [8], 36.6 µM in [9] and 1.65 µM in [10].
`CCCSc1ccc2[nH]c(N3C(=O)/C(=C/c4ccccc4)N=C3c3ccccc3)cc2c1`: the TGI in assay [1] was > 50 µM; in [2], > 50 µM; in [3] it was 24.6 µM; in assay [6], > 50 µM; in assay [7], > 50 µM; in [8], > 50 µM. Also, the TGI in assay [9] and in assay [10] was > 50 µM in each case.
`Cc1cc2c([nH]c3ccccc32)c(O)c1-c1c(C)cc2c([nH]c3ccccc32)c1O`: the GI50 in assay [1] is 12.3 µM; in [2], 10.1 µM; in assay [6], 6.04 µM; in assay [7], 15.9 µM. For the same compound, the TGI in [1] was 25.9 µM; in assay [2] it was 23.8 µM; in assay [4] it was 23.7 µM; in assay [6] it was 19.5 µM; in assay [7] it was 29.4 µM; in assay [8] it was 21.7 µM. Moreover, the TGI in assay [9] came out at 29.4 µM; in assay [10] it was 31.7 µM.
Turning to `CN(C)Cc1cc(C(=O)/C=C/c2ccccc2)cc(CN(C)C)c1O`, the TGI in assay [1] was 36.8 µM; in assay [2] it was > 100 µM; in assay [3] it was 31.9 µM; in assay [4], > 100 µM; in assay [6], 41.4 µM; in assay [7], 78.6 µM. For the same compound, the TGI is 33.8 µM in assay [8], > 100 µM in [9] and 46.5 µM in assay [10].
As to `CCOC(=O)c1cc(C)nc2c1c(=O)n(-c1ccccc1)c(=O)n2CCCCN1CCN(c2ccccc2)CC1`, the TGI in assay [1], in [2], in assay [3], in [4], in assay [5] and in [6] was > 100 µM in each case. Further, the TGI in assay [7], in assay [8] and in assay [9] was > 100 µM each time.
Take `Cc1nc(N)c(N2CCN(CN)CC2)c(=O)[nH]1`: the TGI in assay [1], in [2], in [3], in assay [4], in assay [6] and in assay [7] was > 100 µM throughout. In addition, the TGI in [8], in assay [9] and in assay [10] was > 100 µM each time.
On to `NNC(=O)C1(NC(=O)c2ccccc2)C(c2ccccc2)C(c2ccccc2)=NN1c1ccccc1` (stereo unspecified), for which the TGI in assay [1], in [2], in assay [3], in [4], in assay [5] and in [7] was > 100 µM each time. Also, the TGI in [8], in assay [9] and in [10] was > 100 µM throughout.
Regarding `Nc1nc(Cl)cc(NC23CC4CC(CC(C4)C2)C3)n1`, the TGI in assay [1], in assay [2], in assay [3], in assay [4], in assay [5] and in [7] was > 100 µM each time. The TGI in [8], in [9] and in assay [10] was > 100 µM each time.
Turning to `O=[N+]([O-])c1cccc(N=Nc2c(O)c(S(=O)(=O)O)cc3cc(S(=O)(=O)O)ccc23)c1`, the TGI in assay [1], in assay [2], in [3], in assay [4], in assay [5] and in assay [7] was > 100 µM throughout. Further, the TGI in assay [8], in assay [9] and in assay [10] was > 100 µM in each case.
For `C/C(=N\Nc1nc2ccccc2n1C)c1cc2ccccc2cn1`, the TGI was > 100 µM in assay [1]; 20.7 µM in assay [2]; 4.59 µM in assay [4]; 0.761 µM in [5]; 3.54 µM in assay [6]; 1.47 µM in assay [7]. Further, the TGI was 16.9 µM in [8], 1.55 µM in assay [9] and 14.5 µM in assay [10].
For `COc1ccc(-c2oc3cc(O)cc(O)c3c(=O)c2OC)cc1`, the TGI in assay [1] was > 100 µM; in [2], > 100 µM; in assay [3] it was > 100 µM; in assay [4], 52.1 µM; in assay [5], > 100 µM; in assay [6] it was 68.3 µM. Also, the TGI in [7] was 66.8 µM; in [9], > 100 µM.
Turning to `O=C(N/N=C/C=C/c1ccccc1)c1ccccc1Nc1ccccc1C(=O)N/N=C/C=C/c1ccccc1`, the TGI in [1], in assay [2], in assay [3], in assay [4], in [5] and in assay [6] was > 100 µM throughout. Further, the TGI in assay [7], in assay [8] and in [9] was > 100 µM in each case.
`C=C(C)[C@H]1C2=CC(C)=C(O2)[C@@H](O[C@@H]2c3oc(cc3C)[C@H](C(=C)C)[C@H]3C=C(CC[C@H]2C(=C)C)C(=O)O3)[C@H](C(=C)C)CCC2=C[C@H]1OC2=O`: the TGI in assay [1], in assay [2], in assay [3], in assay [4], in assay [5] and in [7] was > 100 µM throughout. Besides, the TGI in [8] and in assay [9] was > 100 µM throughout.
Take `O=c1oc(C(C(F)(F)F)C(F)(F)F)nc2ccccc12`: the TGI in [1], in assay [2], in assay [3], in assay [4], in assay [5] and in assay [6] was > 100 µM each time. The TGI in assay [7], in assay [9] and in [10] was > 100 µM throughout.
As for `C=C(C)CC1(O[Si](C)(C)C)C(=O)C(OCC)=C1OCC` (stereo unspecified), the TGI in assay [2], in assay [3], in assay [4], in assay [5], in assay [6] and in assay [7] was > 100 µM in each case. For the same compound, the TGI in assay [8], in assay [9] and in assay [10] was > 100 µM throughout.
For the compound `CC(C)=CCNc1nc(Cl)nc2nc[nH]c12`, the TGI in [1] is > 100 µM; in [3] it was > 100 µM; in assay [5] it was 46 µM; in assay [6], > 100 µM; in assay [7] it was > 100 µM; in assay [8] it was > 100 µM. Further, the TGI in assay [9] and in [10] was > 100 µM in each case.
On to `NCC(O)CSCc1ccc(Cl)cc1` (stereo unspecified), for which the TGI in assay [1], in assay [2], in assay [3], in [4], in assay [5] and in [6] was > 100 µM each time. Moreover, the TGI in [7], in [8] and in assay [9] was > 100 µM in each case.
